Measurements from PubChem BioAssay AID2060901 (Molecular Pharmacology Branch, DTP, NCI, 2025).

Test system: 422866-222-R5-J1-PDC complex spheroids viability
Test: Anticancer human tumor 422866-222-R5-J1-PDC patient-derived pancreatic adenocarcinoma cell line growth inhibition [RAS]
Settings: for viability, T/C: stronger effect = lower value
Method in brief: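 Agents were tested in combination matrices in half-log decrements from a top concentration at or near clinical Cmax (10 microM if undetermined). Targets were multi-cell spheroids of tumour lines plus HUVEC and MSC stromal cells.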

[1] = curve of first compound, second compound 0.0316 µM
[2] = curve of first compound, second compound 0.1 µM
[3] = curve of first compound, second compound 0.316 µM
[4] = curve of first compound, second compound 1 µM
[5] = second compound 0.0316 µM, first compound 0.0316 µM
[6] = second compound 0.0316 µM, first compound 0.1 µM
[7] = second compound 0.0316 µM, first compound 0.316 µM
[8] = second compound 0.0316 µM, first compound 1 µM
[9] = second compound 0.0316 µM, first compound 3.16 µM
[10] = second compound 0.0316 µM, first compound 10 µM
[11] = second compound 0.1 µM, first compound 0.0316 µM
[12] = second compound 0.1 µM, first compound 0.1 µM
[13] = second compound 0.1 µM, first compound 0.316 µM
[14] = second compound 0.1 µM, first compound 1 µM
[15] = second compound 0.1 µM, first compound 3.16 µM
[16] = second compound 0.1 µM, first compound 10 µM
[17] = second compound 0.316 µM, first compound 0.0316 µM
[18] = second compound 0.316 µM, first compound 0.1 µM
[19] = second compound 0.316 µM, first compound 0.316 µM
[20] = second compound 0.316 µM, first compound 1 µM
[21] = second compound 0.316 µM, first compound 3.16 µM
[22] = second compound 0.316 µM, first compound 10 µM
[23] = second compound 1 µM, first compound 0.0316 µM
[24] = second compound 1 µM, first compound 0.1 µM
[25] = second compound 1 µM, first compound 0.316 µM
[26] = second compound 1 µM, first compound 1 µM
[27] = second compound 1 µM, first compound 3.16 µM
[28] = second compound 1 µM, first compound 10 µM
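Note: spheroids exposed to compounds for 7 days.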
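Throughout, for viability, T/C: 100% = DMSO vehicle control viability.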

Work on Nc1ccn(C2OC(CO)C(O)C2(F)F)c(=O)n1 (stereo not given) + CCn1c(-c2cc(N3CCN(C)CC3)cnc2C(C)OC)c2c3cc(ccc31)-c1csc(n1)CC(NC(=O)C1CC1C)C(=O)N1CCCC(N1)C(=O)OCC(C)(C)C2 yielded an IC50 (curve of first compound, second compound 0.000949 µM) of under 3.16 nM, an IC50 (curve of first compound, second compound 0.003 µM) of under 3.16 nM and an IC50 (curve of first compound, second compound 0.00949 µM) of under 3.16 nM. It also gave an IC50 (curve of first compound, second compound 0.03 µM) of under 3.16 nM, an IC50 (curve of first compound, second compound 0.0949 µM) of under 3.16 nM and an IC50 (curve of first compound, second compound 0.3 µM) of under 3.16 nM. For the same molecule, the viability, T/C (second compound 0.000949 µM, first compound 0.00316 µM) was 30.8%, the viability, T/C (second compound 0.000949 µM, first compound 0.01 µM) was 27.9% and the viability, T/C (second compound 0.000949 µM, first compound 0.0316 µM) was 25.3%. For the same molecule, the viability, T/C (second compound 0.000949 µM, first compound 0.1 µM) was 24.1%, the viability, T/C (second compound 0.000949 µM, first compound 0.316 µM) was 22.2% and the viability, T/C (second compound 0.000949 µM, first compound 1 µM) was 19.4%. For the same molecule, the viability, T/C (second compound 0.003 µM, first compound 0.00316 µM) was 25.6%, the viability, T/C (second compound 0.003 µM, first compound 0.01 µM) was 23.5% and the viability, T/C (second compound 0.003 µM, first compound 0.0316 µM) was 20.5%. It also gave a viability, T/C (second compound 0.003 µM, first compound 0.1 µM) of 16.5%, a viability, T/C (second compound 0.003 µM, first compound 0.316 µM) of 18.6% and a viability, T/C (second compound 0.003 µM, first compound 1 µM) of 17.4%. For the same molecule, the viability, T/C (second compound 0.00949 µM, first compound 0.00316 µM) was 20.4%, the viability, T/C (second compound 0.00949 µM, first compound 0.01 µM) was 21.1% and the viability, T/C (second compound 0.00949 µM, first compound 0.0316 µM) was 20.4%. The viability, T/C (second compound 0.00949 µM, first compound 0.1 µM) was 16.3%, the viability, T/C (second compound 0.00949 µM, first compound 0.316 µM) was 15.2% and the viability, T/C (second compound 0.00949 µM, first compound 1 µM) was 15.8%. For the same molecule, the viability, T/C (second compound 0.03 µM, first compound 0.00316 µM) was 18.9%, the viability, T/C (second compound 0.03 µM, first compound 0.01 µM) was 20.1% and the viability, T/C (second compound 0.03 µM, first compound 0.0316 µM) was 17.4%. It also gave a viability, T/C (second compound 0.03 µM, first compound 0.1 µM) of 16.1%, a viability, T/C (second compound 0.03 µM, first compound 0.316 µM) of 15.8% and a viability, T/C (second compound 0.03 µM, first compound 1 µM) of 14.7%. It also gave a viability, T/C (second compound 0.0949 µM, first compound 0.00316 µM) of 19.3%, a viability, T/C (second compound 0.0949 µM, first compound 0.01 µM) of 20.8% and a viability, T/C (second compound 0.0949 µM, first compound 0.0316 µM) of 16.7%. For the same molecule, the viability, T/C (second compound 0.0949 µM, first compound 0.1 µM) was 15.6%, the viability, T/C (second compound 0.0949 µM, first compound 0.316 µM) was 16.6% and the viability, T/C (second compound 0.0949 µM, first compound 1 µM) was 16.4%. The viability, T/C (second compound 0.3 µM, first compound 0.00316 µM) was 20%, the viability, T/C (second compound 0.3 µM, first compound 0.01 µM) was 20.4% and the viability, T/C (second compound 0.3 µM, first compound 0.0316 µM) was 18.5%. For the same molecule, the viability, T/C (second compound 0.3 µM, first compound 0.1 µM) was 18.7%, the viability, T/C (second compound 0.3 µM, first compound 0.316 µM) was 18.9% and the viability, T/C (second compound 0.3 µM, first compound 1 µM) was 15.4%.

In the case of Cc1nc(N2CCC3(CC2)COC(C)C3N)c(CO)nc1Sc1ccnc(N)c1Cl (stereo not given) + C=CC(=O)N1CCN(c2nc(OCC3CCCN3C)nc3c(F)c(-c4nc(N)cc(C)c4C(F)(F)F)c(Cl)cc23)C(C)C1, the IC50 (curve of first compound, second compound 0.00316 µM) is reported as under 31.6 nM, the IC50 (curve of first compound, second compound 0.01 µM) is reported as under 31.6 nM and the IC50 [1] is reported as under 31.6 nM. For the same molecule, the IC50 [2] was under 31.6 nM, the IC50 [3] was under 31.6 nM and the IC50 [4] was under 31.6 nM. For the same molecule, the viability, T/C (second compound 0.00316 µM, first compound 0.0316 µM) was 24.8%, the viability, T/C (second compound 0.00316 µM, first compound 0.1 µM) was 21.8% and the viability, T/C (second compound 0.00316 µM, first compound 0.316 µM) was 17.4%. For the same molecule, the viability, T/C (second compound 0.00316 µM, first compound 1 µM) was 15%, the viability, T/C (second compound 0.00316 µM, first compound 3.16 µM) was 15.1% and the viability, T/C (second compound 0.00316 µM, first compound 10 µM) was 14.8%. It also gave a viability, T/C (second compound 0.01 µM, first compound 0.0316 µM) of 30.3%, a viability, T/C (second compound 0.01 µM, first compound 0.1 µM) of 19.8% and a viability, T/C (second compound 0.01 µM, first compound 0.316 µM) of 25%. For the same molecule, the viability, T/C (second compound 0.01 µM, first compound 1 µM) was 15.4%, the viability, T/C (second compound 0.01 µM, first compound 3.16 µM) was 14.8% and the viability, T/C (second compound 0.01 µM, first compound 10 µM) was 14.2%. It also gave a viability, T/C [5] of 21.1%, a viability, T/C [6] of 19.3% and a viability, T/C [7] of 13.8%. It also gave a viability, T/C [8] of 13.8%, a viability, T/C [9] of 15.8% and a viability, T/C [10] of 17.7%. It also gave a viability, T/C [11] of 20%, a viability, T/C [12] of 15.1% and a viability, T/C [13] of 15.7%. It also gave a viability, T/C [14] of 13.2%, a viability, T/C [15] of 17.5% and a viability, T/C [16] of 14.4%. For the same molecule, the viability, T/C [17] was 15.9%, the viability, T/C [18] was 16.4% and the viability, T/C [19] was 16%. It also gave a viability, T/C [20] of 13.4%, a viability, T/C [21] of 17.7% and a viability, T/C [22] of 17.8%. It also gave a viability, T/C [23] of 21.5%, a viability, T/C [24] of 15.2% and a viability, T/C [25] of 19.2%. It also gave a viability, T/C [26] of 15.1%, a viability, T/C [27] of 15.9% and a viability, T/C [28] of 18.9%.

For CC(C)n1nc(-c2ccc3oc(N)nc3c2)c2c(N)ncnc21, the viability, T/C (compound 0.000316 µM) was 103% [middle of 4 runs], the viability, T/C (compound 0.001 µM) was 82.4% [middle of 4 runs] and the viability, T/C (compound 0.01 µM) was 94% [middle of 4 runs]. For the same molecule, the IC50 (curve of compound) was over 100 nM.

Work on CCC(CC)c1cc(NC2CCC(N)C2)n2nccc2n1 (stereo not given) + C#Cc1c(F)ccc2cc(O)cc(-c3ncc4c(N5CC6CCC(C5)N6)nc(OCC56CCCN5CC(F)C6)nc4c3F)c12 yielded an IC50 [1] of 1860 nM, an IC50 [2] of 1690 nM and an IC50 [3] of 1340 nM. It also gave an IC50 [4] of 466 nM, an IC50 (curve of first compound, second compound 3.16 µM) of under 31.6 nM and an IC50 (curve of first compound, second compound 10 µM) of under 31.6 nM. For the same molecule, the viability, T/C [5] was 97.8%, the viability, T/C [6] was 104% and the viability, T/C [7] was 118%. It also gave a viability, T/C [8] of 75.7%, a viability, T/C [9] of 19.7% and a viability, T/C [10] of 36.2%. The viability, T/C [11] was 99%, the viability, T/C [12] was 125% and the viability, T/C [13] was 98.2%. It also gave a viability, T/C [14] of 71.9%, a viability, T/C [15] of 12.5% and a viability, T/C [16] of 35.3%. For the same molecule, the viability, T/C [17] was 75%, the viability, T/C [18] was 85.1% and the viability, T/C [19] was 83.4%. For the same molecule, the viability, T/C [20] was 58.5%, the viability, T/C [21] was 12.3% and the viability, T/C [22] was 38.6%. The viability, T/C [23] was 50.2%, the viability, T/C [24] was 57.9% and the viability, T/C [25] was 47.8%. The viability, T/C [26] was 46.1%, the viability, T/C [27] was 12.7% and the viability, T/C [28] was 35.3%. For the same molecule, the viability, T/C (second compound 3.16 µM, first compound 0.0316 µM) was 35.6%, the viability, T/C (second compound 3.16 µM, first compound 0.1 µM) was 28.6% and the viability, T/C (second compound 3.16 µM, first compound 0.316 µM) was 33.3%. For the same molecule, the viability, T/C (second compound 3.16 µM, first compound 1 µM) was 33.9%, the viability, T/C (second compound 3.16 µM, first compound 3.16 µM) was 10.5% and the viability, T/C (second compound 3.16 µM, first compound 10 µM) was 39.9%. It also gave a viability, T/C (second compound 10 µM, first compound 0.0316 µM) of 21.7%, a viability, T/C (second compound 10 µM, first compound 0.1 µM) of 24.9% and a viability, T/C (second compound 10 µM, first compound 0.316 µM) of 30.2%. The viability, T/C (second compound 10 µM, first compound 1 µM) was 27.6%, the viability, T/C (second compound 10 µM, first compound 3.16 µM) was 9.17% and the viability, T/C (second compound 10 µM, first compound 10 µM) was 35%.
